These molecules were tested against DGKα (Homo sapiens (Human), UniProt P23743) (assay: Assay 1: In Vitro DGK Inhibition Assays, Method A (DGKα LIPGLO, extruded liposome)). Settings: extruded liposome substrate, 150 μM ATP.
Sequence of DGKα (P23743 whole entry): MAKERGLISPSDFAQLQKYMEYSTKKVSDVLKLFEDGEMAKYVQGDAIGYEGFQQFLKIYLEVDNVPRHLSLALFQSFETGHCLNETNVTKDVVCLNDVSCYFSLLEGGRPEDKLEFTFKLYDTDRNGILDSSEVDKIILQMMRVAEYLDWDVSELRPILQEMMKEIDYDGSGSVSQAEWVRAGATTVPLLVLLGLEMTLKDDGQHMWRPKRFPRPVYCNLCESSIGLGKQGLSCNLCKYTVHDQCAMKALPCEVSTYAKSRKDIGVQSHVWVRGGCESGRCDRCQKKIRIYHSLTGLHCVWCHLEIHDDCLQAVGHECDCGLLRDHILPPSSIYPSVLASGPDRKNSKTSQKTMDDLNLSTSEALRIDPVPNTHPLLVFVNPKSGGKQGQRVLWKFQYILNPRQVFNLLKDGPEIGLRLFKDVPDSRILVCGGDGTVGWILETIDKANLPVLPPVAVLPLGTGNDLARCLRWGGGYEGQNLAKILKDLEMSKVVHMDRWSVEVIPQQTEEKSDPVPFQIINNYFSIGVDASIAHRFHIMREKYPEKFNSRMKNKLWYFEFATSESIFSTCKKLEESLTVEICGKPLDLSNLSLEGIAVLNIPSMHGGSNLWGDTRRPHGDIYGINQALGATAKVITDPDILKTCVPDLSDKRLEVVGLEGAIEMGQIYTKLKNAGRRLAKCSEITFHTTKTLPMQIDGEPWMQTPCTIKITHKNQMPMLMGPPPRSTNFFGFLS
Type: biochemical
Experimental: (§1) Assay 1: In Vitro DGK Inhibition Assays—Method A
(§2) The DGKα and DGKζ reactions were performed using either extruded liposome (DGKα and DGKζ LIPGLO assays) or detergent/lipid micelle substrate (DGKα and DGKζ assays). The reactions were carried out in 50 mM MOPS pH 7.5, 100 mM NaCl, 10 mM MgCl2, 1 μM CaCl2), and 1 mM DTT (assay buffer). The reactions using a detergent/lipid micelle substrate also contained 50 mM octyl B-D-glucopyranoside. The lipid substrate concentrations were 11 mM PS and 1 mM DAG for the detergent/lipid micelle reactions. The lipid substrate concentrations were 2 mM PS, 0.25 mM DAG, and 2.75 mM PC for the extruded liposome reactions. The reactions were carried out in 150 μM ATP. The enzyme concentrations for the DGKα and DGKζ were 5 nM
(§3) The compound inhibition studies were carried out as follows: 50 nL droplets of each test compound (top concentration 10 mM with 11 point, 3-fold dilution series for each compound) solubilized in DMSO were transferred to wells of a white 1536 well plate (Corning 3725). A 5 mL enzyme/substrate solution at 2× final reaction concentration was prepared by combining 2.5 mL 4× enzyme solution (20 nM DGKα or DGKζ (prepared as described below) in assay buffer) and 2.5 mL of either 4× liposome or 4× detergent/lipid micelle solution (compositions described below) and incubated at room temperature for 10 minutes. Next, 1 μL 2× enzyme/substrate solution was added to wells containing the test compound and reactions were initiated with the addition of 1 μL 300 uM ATP. The reactions were allowed to proceed for 1 hr, after which 2 μL Glo Reagent (Promega V9101) was added and incubated for 40 minutes. Next, 4 μL Kinase Detection Reagent was added and incubated for 30 minutes. Luminescence was recorded using an EnVision microplate reader. […] The compounds were evaluated at 11 concentrations to determine IC50.
(§4) The lipid composition was 5 mol % DAG (Avanti 8008110), 40 mol % PS (Avanti 840035P), and 55 mol % PC (Avanti 850457) at a total lipid concentration of 15.2 mg/mL for the 4× liposome solution. The PC, DAG, and PS were dissolved in chloroform, combined, and dried in vacuo to a thin film. The lipids were hydrated to 20 mM in 50 mM MOPS pH 7.5, 100 mM NaCl, 5 mM MgCl2, and were freeze-thawed five times. The lipid suspension was extruded through a 100 nm polycarbonate filter eleven times. […] The liposome preparation was stored at 4° C. for as long as four weeks.
(§5) Baculovirus amplification was achieved using infected Sf9 cells at 1:1500 virus/cell ratios, and grown for 65 hours at 27° C. post-transfection.
(§6) The cells were lysed using nitrogen cavitation method with a nitrogen bomb (Parr Instruments), and the lysates were clarified by centrifugation. […] The three steps column chromatography included nickel affinity resin capture (i.e. HisTrap FF crude, GE Healthcare), followed by size exclusion chromatography (i.e. HiLoad 26/600 Superdex 200 prep grade, GE Healthcare for DGK-alpha, and HiPrep 26/600 Sephacryl S 300_HR, GE Healthcare for DGK-zeta). The third step was ion exchange chromatography, and differed for the two isoforms. DGKα was polished using Q-Sepharose anion exchange chromatography (GE Healthcare). DGKζ was polished using SP Sepharose cation exchange chromatography (GE Healthcare). The proteins were delivered at concentrations of ≥2 mg/mL. The formulation buffers were identical for both proteins: 50 mM Hepes, pH 7.2, 500 mM NaCl, 10% v/v glycerol, 1 mM TCEP, and 0.5 mM EDTA.
Work on `C[C@@H]1CN(c2cc(=O)n(C)c3ccc(C#N)nc23)[C@@H](C)CN1C(C(=O)N1CCCCC1)c1ccc(F)cc1` (single isomer, unassigned) [Example 11] yielded an IC50 of 0.51 µM.
For `C[C@@H]1CN(c2cc(=O)n(C)c3ccc(C#N)nc23)[C@@H](C)CN1C(CC(=O)NC(C)(C)C)c1ccc(F)cc1` (single isomer, unassigned) [Example 33], the IC50 was 6.36 µM.
Molecule `C[C@@H]1CN(c2cc(=O)n(C)c3ccc(C#N)nc23)[C@@H](C)CN1C(CC(=O)NC(C)(C)C)c1ccc(F)cc1` (single isomer, unassigned) [Example 34] has an IC50 of 4.04 µM.

These molecules were tested against DGKζ (Homo sapiens (Human), UniProt Q13574) (assay: Assay 1 or 2: In Vitro DGK Inhibition Assays (DGKζ LIPGLO, extruded liposome)). Settings: extruded liposome substrate, 150 μM ATP.
Sequence of DGKζ (Q13574 other isoform, or with tags, fused parts or gaps): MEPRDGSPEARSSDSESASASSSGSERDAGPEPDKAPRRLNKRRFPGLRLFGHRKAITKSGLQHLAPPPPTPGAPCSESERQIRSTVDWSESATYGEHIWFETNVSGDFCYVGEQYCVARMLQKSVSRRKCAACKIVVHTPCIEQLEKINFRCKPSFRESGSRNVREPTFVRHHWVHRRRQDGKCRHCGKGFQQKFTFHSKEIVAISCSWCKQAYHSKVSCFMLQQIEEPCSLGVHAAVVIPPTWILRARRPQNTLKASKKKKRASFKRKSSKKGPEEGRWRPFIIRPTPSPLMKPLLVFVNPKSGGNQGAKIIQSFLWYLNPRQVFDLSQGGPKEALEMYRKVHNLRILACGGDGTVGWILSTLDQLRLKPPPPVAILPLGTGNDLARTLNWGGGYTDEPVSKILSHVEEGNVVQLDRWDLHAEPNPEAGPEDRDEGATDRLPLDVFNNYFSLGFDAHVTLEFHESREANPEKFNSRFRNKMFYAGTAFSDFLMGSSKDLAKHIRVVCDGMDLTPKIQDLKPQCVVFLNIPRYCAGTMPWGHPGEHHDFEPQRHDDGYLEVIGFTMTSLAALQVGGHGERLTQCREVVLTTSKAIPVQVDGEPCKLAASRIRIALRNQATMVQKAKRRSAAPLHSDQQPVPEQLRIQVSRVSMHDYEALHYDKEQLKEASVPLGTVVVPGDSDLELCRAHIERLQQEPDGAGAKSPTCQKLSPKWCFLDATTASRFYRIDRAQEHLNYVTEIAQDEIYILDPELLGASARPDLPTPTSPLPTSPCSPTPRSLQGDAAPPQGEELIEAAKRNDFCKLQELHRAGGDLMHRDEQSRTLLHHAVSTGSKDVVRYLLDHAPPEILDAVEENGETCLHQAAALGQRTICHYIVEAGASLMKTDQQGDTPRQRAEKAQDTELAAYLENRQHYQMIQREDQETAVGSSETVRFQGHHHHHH
Type: biochemical
Experimental: as §1, §2, §3, §4, §5, §6
Assay 2: In Vitro DGK Inhibition Assays—Method B
The DGKα and DGKζ reactions were performed using either extruded liposome (DGKα and DGKζ LIPGLO assays) or detergent/lipid micelle substrate (DGKα and DGKζ assays).
In the case of `C[C@@H]1CN(c2cc(=O)n(C)c3ccc(C#N)nc23)[C@@H](C)CN1C(C(=O)N1CCCCC1)c1ccc(F)cc1` (single isomer, unassigned) [Example 11], the IC50 is reported as 1.22 µM.
In the case of `C[C@@H]1CN(c2cc(=O)n(C)c3ccc(C#N)nc23)[C@@H](C)CN1C(CC(=O)NC(C)(C)C)c1ccc(F)cc1` (single isomer, unassigned) [Example 33], the IC50 is reported as 11.1 µM.
`C[C@@H]1CN(c2cc(=O)n(C)c3ccc(C#N)nc23)[C@@H](C)CN1C(CC(=O)NC(C)(C)C)c1ccc(F)cc1` (single isomer, unassigned) [Example 34] was tested, and the IC50 was 6.84 µM.

These molecules were tested on Human whole blood IFN-γ (assay: Assay 10: Human Whole Blood IFN-γ Assay). Settings: Homo sapiens, 24 h, anti-CD3 and anti-CD28 stimulation, 100% = 3 μM reference compound, read-out: INFg Whole Blood Normalized Agonist EC50.
Type: cell-based
Experimental: Assay 10: Human Whole Blood IFN-γ Assay
Human venous whole blood (22.5 μL per well), obtained from healthy donors, was pre-treated with compounds for one hour at 37° C. in a humidified 95% air/5% CO2 incubator. The blood was stimulated with 2.5 μL anti-human CD3 and anti-CD28 mAb at a final concentration of 1 μg/mL each for 24 hours at 37° C. IFN-7 in the supernatants was measured using AlphLISA kit (Cat #AL217).
For `C[C@@H]1CN(c2cc(=O)n(C)c3ccc(C#N)nc23)[C@@H](C)CN1C(C(=O)O)c1ccc(F)cc1` (single isomer, unassigned) [Example 10], the EC50 was 20 µM.
Molecule `CC(C(=O)NC1CCCC1)N1C[C@H](C)N(c2cc(=O)n(C)c3ccc(C#N)nc23)C[C@H]1C` (single isomer, unassigned) [Example 43] has an EC50 of 20 µM.
With `C[C@@H]1CN(c2cc(=O)n(C)c3ccc(C#N)nc23)[C@@H](C)CN1C(c1ccc(F)cc1)P(C)(C)=O` (single isomer, unassigned) [Example 49] the EC50 was 20 µM.
`COC(=O)C(c1ccc(F)cc1)N1C[C@H](C)N(c2cc(=O)n(C)c3ccc(C#N)nc23)C[C@H]1C` (stereo partly drawn) [Example 7, Methyl 2-((2R,5S)-4-(6-cyano-1-methyl-2-oxo-1,2-dihydro-1,5-naphthyridin-4-yl)-2,5-dimethylpiperazin-1-yl)-2-(4-fluorophenyl)acetate] gave an EC50 of 0.1 µM.
With `C[C@@H]1CN(c2cc(=O)n(C)c3ccc(C#N)nc23)[C@@H](C)CN1C(C(N)=O)c1ccc(F)cc1` (stereo partly drawn) [Example 13, 2-((2R,5S)-4-(6-cyano-1-methyl-2-oxo-1,2-dihydro-1,5-naphthyridin-4-yl)-2,5-dimethylpiperazin-1-yl)-2-(4-fluorophenyl)acetamide] the EC50 was 20 µM.
With `C[C@@H]1CN(c2cc(=O)n(C)c3ccc(C#N)nc23)[C@@H](C)CN1C(C(=O)N(C)C)c1ccc(F)cc1` (stereo partly drawn) [Example 23, 2-((2R,5S)-4-(6-cyano-1-methyl-2-oxo-1,2-dihydro-1,5-naphthyridin-4-yl)-2,5-dimethylpiperazin-1-yl)-2-(4-fluorophenyl)-N,N-dimethylacetamide] the EC50 was 20 µM.
Molecule `C[C@@H]1CN(c2cc(=O)n(C)c3ccc(C#N)nc23)[C@@H](C)CN1C(C(=O)NCCO)c1ccc(F)cc1` (stereo partly drawn) [Example 27, 2-((2R,5S)-4-(6-cyano-1-methyl-2-oxo-1,2-dihydro-1,5-naphthyridin-4-yl)-2,5-dimethylpiperazin-1-yl)-2-(4-fluorophenyl)-N-(2-hydroxyethyl)acetamide] has an EC50 of 1.54 µM.
`CC(C(=O)Nc1cnn(C)c1)N1C[C@H](C)N(c2cc(=O)n(C)c3ccc(C#N)nc23)C[C@H]1C` (stereo partly drawn) [Example 45, 2-((2R,5S)-4-(6-cyano-1-methyl-2-oxo-1,2-dihydro-1,5-naphthyridin-4-yl)-2,5-dimethylpiperazin-1-yl)-N-(1-methyl-1H-pyrazol-4-yl)propanamide] was tested, and the EC50 was 20 µM.
Molecule `CC(C(=O)NC1CC1)N1C[C@H](C)N(c2cc(=O)n(C)c3ccc(C#N)nc23)C[C@H]1C` (stereo partly drawn) [Example 47, 2-((2R,5S)-4-(6-cyano-1-methyl-2-oxo-1,2-dihydro-1,5-naphthyridin-4-yl)-2,5-dimethylpiperazin-1-yl)-N-cyclopropylpropanamide] has an EC50 of 20 µM.

Same assay, conditions: anti-CD3 and anti-CD28 stimulation, 24 hours, 100% = 3 μM reference compound, read-out: INFg Whole Blood Normalized Agonist EC50
`CC(C)OC(=O)C(c1ccc(F)cc1)N1C[C@H](C)N(c2cc(=O)n(C)c3ccc(C#N)nc23)C[C@H]1C` (single isomer, unassigned) [Example 1] was tested, and the EC50 was 0.61 µM.
Work on `COC(=O)CC(c1ccc(F)cc1)N1C[C@H](C)N(c2cc(=O)n(C)c3ccc(C#N)nc23)C[C@H]1C` (single isomer, unassigned) [Example 31] yielded an EC50 of 0.15 µM.
With `COC(=O)CC(c1ccc(F)cc1)N1C[C@H](C)N(c2cc(=O)n(C)c3ccc(C#N)nc23)C[C@H]1C` (single isomer, unassigned) [Example 32] the EC50 was 1.81 µM.
Work on `CC(C(=O)NC1CCCC1)N1C[C@H](C)N(c2cc(=O)n(C)c3ccc(C#N)nc23)C[C@H]1C` (single isomer, unassigned) [Example 44] yielded an EC50 of 20 µM.
Work on `C[C@@H]1CN(c2cc(=O)n(C)c3ccc(C#N)nc23)[C@@H](C)CN1C(c1ccc(F)cc1)P(C)(C)=O` (single isomer, unassigned) [Example 50] yielded an EC50 of 20 µM.
For `C[C@@H]1CN(c2cc(=O)n(C)c3ccc(C#N)nc23)[C@@H](C)CN1C(C(N)=O)c1ccc(F)cc1` (stereo partly drawn) [Example 14, 2-((2R,5S)-4-(6-cyano-1-methyl-2-oxo-1,2-dihydro-1,5-naphthyridin-4-yl)-2,5-dimethylpiperazin-1-yl)-2-(4-fluorophenyl)acetamide], the EC50 was 20 µM.
Molecule `C[C@@H]1CN(c2cc(=O)n(C)c3ccc(C#N)nc23)[C@@H](C)CN1C(C(=O)N1CCCC1)c1ccc(F)cc1` (stereo partly drawn) [Example 21, 8-((2S,5R)-4-(1-(4-fluorophenyl)-2-oxo-2-(pyrrolidin-1-yl)ethyl)-2,5-dimethylpiperazin-1-yl)-5-methyl-6-oxo-5,6-dihydro-1,5-naphthyridine-2-carbonitrile] has an EC50 of 2.56 µM.
Molecule `C[C@@H]1CN(c2cc(=O)n(C)c3ccc(C#N)nc23)[C@@H](C)CN1C(C(=O)N1CCCC1)c1ccc(F)cc1` (stereo partly drawn) [Example 22, 8-((2S,5R)-4-(1-(4-fluorophenyl)-2-oxo-2-(pyrrolidin-1-yl)ethyl)-2,5-dimethylpiperazin-1-yl)-5-methyl-6-oxo-5,6-dihydro-1,5-naphthyridine-2-carbonitrile] has an EC50 of 9.03 µM.
With `C[C@@H]1CN(c2cc(=O)n(C)c3ccc(C#N)nc23)[C@@H](C)CN1C(C(=O)N(C)C)c1ccc(F)cc1` (stereo partly drawn) [Example 24, 2-((2R,5S)-4-(6-cyano-1-methyl-2-oxo-1,2-dihydro-1,5-naphthyridin-4-yl)-2,5-dimethylpiperazin-1-yl)-2-(4-fluorophenyl)-N,N-dimethylacetamide] the EC50 was 20 µM.
Molecule `CNC(=O)C(c1ccc(F)cc1)N1C[C@H](C)N(c2cc(=O)n(C)c3ccc(C#N)nc23)C[C@H]1C` (stereo partly drawn) [Example 25, 2-((2R,5S)-4-(6-cyano-1-methyl-2-oxo-1,2-dihydro-1,5-naphthyridin-4-yl)-2,5-dimethylpiperazin-1-yl)-2-(4-fluorophenyl)-N-methylacetamide] has an EC50 of 5.12 µM.
Molecule `CC(C(=O)Nc1cnn(C)c1)N1C[C@H](C)N(c2cc(=O)n(C)c3ccc(C#N)nc23)C[C@H]1C` (stereo partly drawn) [Example 46, 2-((2R,5S)-4-(6-cyano-1-methyl-2-oxo-1,2-dihydro-1,5-naphthyridin-4-yl)-2,5-dimethylpiperazin-1-yl)-N-(1-methyl-1H-pyrazol-4-yl)propanamide] has an EC50 of 20 µM.
`CC(C(=O)NC1CC1)N1C[C@H](C)N(c2cc(=O)n(C)c3ccc(C#N)nc23)C[C@H]1C` (stereo partly drawn) [Example 48, 2-((2R,5S)-4-(6-cyano-1-methyl-2-oxo-1,2-dihydro-1,5-naphthyridin-4-yl)-2,5-dimethylpiperazin-1-yl)-N-cyclopropylpropanamide] gave an EC50 of 20 µM.

From patent publication US12454531B2, “Substituted piperazine derivatives useful as T cell activators” (BRISTOL-MYERS SQUIBB COMPANY, priority 2019, dated 2025)
